Results: patent publication US20030198617A1, “Pharmaceutical tryptophan containing dipeptide compositions and methods of use thereof” (priority 1993, published 2003)
Read-outs that look alike come from different tables or passages of the source. Marks after values point to notes of the source that are not given here.

Key:
[1] = test system: Staphylococci; assay: Antibiotic-sensitivity of staphylococci from skin lesions (MIC, series cultivation); assay type: cell-based
Source text: Staphylococci extracted from dermal lesions were initially sensitive to 10 of the 15 antibiotics being assayed (Table 25).

[2] = test system: Mycobacterium tuberculosis; details: in vivo
[3] = test system: methicillin-resistant Staphylococcal aureus; details: 5 test animals
[4] = staphylococci from patients After IM862
[5] = staphylococci from patients Before IM862

Molecule	MIC g/ml [1, 4]	MIC g/ml [1, 5]	also measured
CC(=O)OCC1=C(C(=O)O)N2C(=O)[C@@H](NC(=O)Cc3cccs3)[C@H]2SC1 [Keflin]	1. ± 0.69^y g/ml		
Penicillin	2.52 ± 0.70^yy g/ml	9.45 ± 0.28^x g/ml	
Cc1nnc(SCC2=C(C(=O)O)N3C(=O)[C@@H](NC(=O)Cn4cnnn4)[C@H]3SC2)s1 [Cefamezin]	1.33 ± 0.53^yy g/ml		
O=C(N[C@H](CO)[C@H](O)c1ccc([N+](=O)[O-])cc1)C(Cl)Cl [Levomicetin]	4.58 ± 0.67^yy g/ml	9.17 ± 0.36^x g/ml	
[H]/N=C(/N)N[C@H]1[C@H](O)[C@@H](O)[C@H](O[C@@H]2O[C@@H](C)[C@](O)(C=O)[C@H]2O[C@@H]2O[C@@H](CO)[C@H](O)[C@@H](O)[C@@H]2NC)[C@@H](N/C(N)=N\[H])[C@@H]1O [Streptomycin]	3.39 ± 0.66^yy g/ml	6.71 ± 0.59^x g/ml	
NC[C@H]1O[C@H](O[C@H]2[C@H](O)[C@@H](O[C@H]3O[C@H](CO)[C@@H](O)[C@H](N)[C@H]3O)[C@H](N)C[C@@H]2N)[C@H](O)[C@@H](O)[C@@H]1O [Kanamycin]	2.09 ± 0.54^yy g/ml	6.32 ± 0.58^x g/ml	
Cc1onc(-c2ccccc2)c1C(=O)N[C@@H]1C(=O)N2[C@@H]1SC(C)(C)[C@@H]2C(=O)O [Oxycillin]	1.56 ± 0.45^yy g/ml	5.11 ± 0.63^x g/ml	
Gentamycin	1.32 ± 0.49^yy g/ml	5.47 ± 0.92^x g/ml	
c1ccc([C@H]2CN3CCSC3=N2)cc1 [decaris, reference compound]			disintegration cavities closed, number of patients [2]: 10 patients; improvement, number of patients [2]: 18; no improvement, number of patients [2]: 3 patients; significant improvement, number of patients [2]: only one case
CC1(C)S[C@@H]2[C@H](NC(=O)[C@H](N)c3ccccc3)C(=O)N2[C@H]1C(=O)O [Ampicillin, reference compound]	2.64 ± 0.60^yy g/ml	8.10 ± 0.49^x g/ml	Survivors ([3]; 100 mg/kg Ampicillin, pre-treated with normal saline i.p.): no survivors; Percent ip Survivors ([3]; Group 1: IM862 control (0) pretreatment, ampicillin 100 mg/kg 1 hr after inoculation, 72 hours): 0%; Survivors ([3]; Group 1: IM862 control (0) pretreatment, ampicillin 100 mg/kg 1 hr after inoculation, survivors at 72 hours): 0
Cc1nnc(SCC2=C(C(=O)O)N3C(=O)[C@@H](NC(=O)Cn4cnnn4)[C@H]3SC2)s1 [Kefzol]	1.86 ± 0.93^y g/ml		
